In general, Ki refers to the dissociation constant of the complex between target and ligand, obtained from inhibition or displacement. High values mean weaker binding, low ones tighter binding.

The record followed here is patent publication US7547728B2, “Treating muscle wasting with selective androgen receptor modulators” (priority 2001, dated 2009).

One experiment has as its target T1, androgen receptor (Rattus norvegicus, UniProt P15207).
T1 construct: from tissue
T1 sequence (P15207 1-902): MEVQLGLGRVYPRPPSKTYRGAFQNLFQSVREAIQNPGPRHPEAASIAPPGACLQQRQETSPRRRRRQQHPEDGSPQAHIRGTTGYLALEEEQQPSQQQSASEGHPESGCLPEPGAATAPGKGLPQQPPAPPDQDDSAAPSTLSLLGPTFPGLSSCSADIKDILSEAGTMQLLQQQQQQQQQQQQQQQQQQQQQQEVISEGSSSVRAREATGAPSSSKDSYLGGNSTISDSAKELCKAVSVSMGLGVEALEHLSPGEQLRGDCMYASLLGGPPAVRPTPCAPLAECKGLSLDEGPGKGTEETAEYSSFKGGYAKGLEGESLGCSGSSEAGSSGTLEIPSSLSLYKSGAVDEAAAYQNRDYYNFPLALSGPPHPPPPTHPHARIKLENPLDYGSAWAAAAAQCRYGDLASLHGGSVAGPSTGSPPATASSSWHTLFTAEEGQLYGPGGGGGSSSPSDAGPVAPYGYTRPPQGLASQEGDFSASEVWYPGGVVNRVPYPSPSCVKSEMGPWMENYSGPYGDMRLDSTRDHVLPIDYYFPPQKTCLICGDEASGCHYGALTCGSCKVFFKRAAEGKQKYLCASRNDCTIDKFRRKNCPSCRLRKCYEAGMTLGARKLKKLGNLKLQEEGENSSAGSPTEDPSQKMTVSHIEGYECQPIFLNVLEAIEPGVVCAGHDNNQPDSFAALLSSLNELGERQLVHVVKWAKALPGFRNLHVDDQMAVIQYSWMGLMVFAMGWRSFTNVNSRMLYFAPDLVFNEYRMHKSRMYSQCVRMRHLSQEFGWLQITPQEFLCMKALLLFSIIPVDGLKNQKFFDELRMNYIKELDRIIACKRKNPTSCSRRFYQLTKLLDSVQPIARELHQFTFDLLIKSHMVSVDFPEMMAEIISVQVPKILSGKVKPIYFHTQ
Put plainly: biochemical. It is filed as binding. The settings on record: for RBA (%): relative binding affinity.

The subject of another experiment is levator ani muscle. The experiment is described as follows: Anabolic activity: levator ani muscle weight in male rats. To be noted: for Levator ani muscle weight compared with intact controls: castrated male rats, 0.1-1 mg/day (FIG. 7). It is filed as in vivo, rat. The source says:
(§1) Male Sprague-Dawley rats were purchased from Harlan Biosciences (Indianapolis, Ind.). […] One day before the initiation of drug treatment, groups 4 through 6 and groups 7 through 9 received unilateral or bilateral orchidectomy, respectively, via a midline scrotal incision. […] All drugs given to animals were freshly prepared as solutions in polyethylene glycol 300 (PEG 300). Groups 4 and 7 received treatment with vehicle alone (i.e., PEG 300). […] The ventral prostates, seminal vesicles, and levator ani muscle were removed and weighed. Osmotic pumps were also removed from animals to check for correct pump operation. […] Statistical analyses of parameters from complete blood count or serum chemical profiling, wherever applicable, were performed by single-factor ANOVA with the alpha value set a priori at p<0.05.

For the next experiment, the system named is seminal vesicles. Put plainly: Androgenic activity: seminal vesicle weight in male rats. The settings on record: for Agonist character in seminal vesicles: male rats, from organ weights. The format is in vivo, rat.
From the text: as §1

The next experiment has as its system prostate. The experiment is described as follows: Androgenic activity: prostate weight in male rats. The format is in vivo, rat. The settings on record: for Prostate weight: castrated rats; for Agonist character in prostate: male rats, from organ weights.
From the text: as §1

[1] abbreviates: seminal vesicle, castrated rats, dose response 0.1-1.0 mg/day.
The mark [2] stands for this setting: seminal vesicle, relative to TP.
Where [3] appears, read: levator ani muscle, castrated rats, dose response 0.1-1.0 mg/day.
Where [4] appears, read: levator ani muscle, relative to TP.
Setting [5] is: castrated rats, 1 mg/day, daily injection.

On to `C[C@](O)(COc1ccc(I)cc1)C(=O)Nc1ccc([N+](=O)[O-])c(C(F)(F)F)c1` [Compound IX], for which, at androgen receptor, the “RBA (%)” value is given as 2.7%. The “Levator ani muscle weight compared with intact controls” value in the experiment with levator ani muscle was “close to those of the intact controls”.

For `C[C@](O)(COc1ccc(Br)cc1)C(=O)Nc1ccc([N+](=O)[O-])c(C(F)(F)F)c1` [Compound VIII], the “RBA (%)” value at androgen receptor amounted to 5.3%. Further, the “Levator ani muscle weight compared with intact controls” value in the experiment on levator ani muscle is “close to those of the intact controls”.

Consider `C[C@](O)(COc1ccc(Cl)cc1)C(=O)Nc1ccc([N+](=O)[O-])c(C(F)(F)F)c1` [Compound VII], for which the “Levator ani muscle weight compared with intact controls” value with levator ani muscle is on record as “exceeding those of intact controls”.

`C[C@](O)(COc1ccc(F)cc1)C(=O)Nc1ccc([N+](=O)[O-])c(C(F)(F)F)c1` [Compound VI]: in the experiment on seminal vesicles (setting [1]), the “ED50” value is given as 0.38 ± 0.26 mg/day and the “Emax (% of Intact Control)” value is on record as 12.7 ± 3.1 % of Intact Control. In the experiment on seminal vesicles (setting [2]), the “Relative Afficacy” value is given as 0.18 and the “Relative Potency” value turned out to be 0.32. In addition, in the experiment with levator ani muscle, the “Levator ani muscle weight compared with intact controls” value is listed as “close to those of the intact controls”. In addition, in the experiment with levator ani muscle (setting [3]), the “ED50” value worked out at 0.44 ± 0.01 mg/day and the “Emax (% of Intact Control)” value is 74.9 ± 0.4 % of Intact Control. Besides, in the experiment with levator ani muscle (setting [4]), the “Relative Afficacy” value is 0.72 and the “Relative Potency” value was found to be 0.34.

For `C[C@](O)(COc1c(F)c(F)c(F)c(F)c1F)C(=O)Nc1ccc([N+](=O)[O-])c(C(F)(F)F)c1` [Compound XII], in the experiment on seminal vesicles (setting [5]), the “Seminal Vesicles weight” value is reported as 7.2 ± 0.9 % of intact. In addition, in the experiment with seminal vesicles, the “Agonist character in seminal vesicles” value is “weak partial agonist”. In addition, the Prostate weight in the experiment with prostate (1 mg/day, daily injection) was 7.2 ± 1.4 % of intact. Besides, the “Agonist character in prostate” value in the experiment with prostate is “weak partial agonist”. Also, at androgen receptor, the “RBA (%)” value amounted to 13.3%. Besides, in the experiment with levator ani muscle (castrated rats, 1 mg/day via osmotic pump), the “Levator Ani Muscle weight” value is recorded as 122.5±10.4 % of intact.

On to `C[C@](O)(COc1ccc(F)c(F)c1)C(=O)Nc1ccc([N+](=O)[O-])c(C(F)(F)F)c1` [Compound XI], for which, in the experiment on seminal vesicles (setting [5]), the “Seminal Vesicles weight” value is 23.6 ± 8.8 % of intact. The “Agonist character in seminal vesicles” value in the experiment on seminal vesicles is recorded as “weak partial agonist”. The Prostate weight in the experiment on prostate (1 mg/day, daily injection) was 33.1 ± 8.5 % of intact. In addition, in the experiment on prostate, the “Agonist character in prostate” value was “weak partial agonist”. On androgen receptor, this molecule came in with a Ki of 3.4 ± 0.56 nM.

For `C[C@](O)(COc1ccc(F)cc1)C(=O)Nc1ccc(C#N)c(C(F)(F)F)c1` [Compound X], the “Seminal Vesicles weight” value in the experiment on seminal vesicles (castrated rats, 0.10 mg/day) was 8.8 ± 1.18 % of intact; with seminal vesicles (castrated rats, 0.50 mg/day) it was 9.3 ± 1.57 % of intact; with seminal vesicles (castrated rats, 0.75 mg/day), 9.8 ± 3.65 % of intact; in the experiment on seminal vesicles (castrated rats, 1.00 mg/day) it was 10.7±0.91 % of intact. In the experiment with seminal vesicles, the “Agonist character in seminal vesicles” value is “weak partial agonist”. Besides, the Prostate weight with prostate (0.10 mg/day) is recorded as 6.4 ± 0.82 % of intact; in the experiment on prostate (0.50 mg/day), 6.2 ± 0.56 % of intact; in the experiment with prostate (0.75 mg/day), 7.6 ± 0.74 % of intact; with prostate (1.00 mg/day), 8.7±1.39 % of intact. The “Agonist character in prostate” value in the experiment with prostate is given as “weak partial agonist”. Moreover, the “Levator Ani weight” value in the experiment with levator ani muscle (castrated rats, 0.10 mg/day) was 54.9 ± 5.77 % of intact; with levator ani muscle (castrated rats, 0.50 mg/day), 55.0 ± 9.23 % of intact; in the experiment on levator ani muscle (castrated rats, 0.75 mg/day), 68.9 ± 8.46 % of intact; with levator ani muscle (castrated rats, 1.00 mg/day), 75.2±9.51 % of intact.
